Reference: patent US20240254118A1, “PRMT5 INHIBITORS AND USES THEREOF” (Gilead Sciences, Inc., priority 2022, published 2024)

What was measured:
[1] = test system: HCT116 MTAP-deleted cells; assay: Cell viability assay (CellTiter-Glo, 7 days), HCT116 MTAP-deleted; conditions: Homo sapiens, HCT-116, 168 h
[2] = test system: SDMA signal (PRMT5 inhibition) in HCT116 MTAP-deleted cells; assay: Symmetric di-methyl arginine image-based high content screen assay (SDMA assay), HCT116 MTAP-deleted; assay type: cell-based; conditions: SDMA assay; for EC50: Homo sapiens, HCT-116, 72 h, 3 days of treatment, cell line not given, taken as HCT116 MTAP-deleted, read-out: EC50 (SDMA assay)
Protocol: Symmetric di-methyl arginine image-based high content screen assay (SDMA assay) was performed in HCT116 WT and HCT116 MTAP-deleted cell lines to measure Symmetric Di-methyl Arginine (SDMA) signal reduction after selective PRMT5 inhibition in the MTAP-deleted cells.
Briefly, the same compound plates were generated as mentioned in the previous section of Cell viability assay on Day −1.
On Day 3, the cells were fixed by adding 45 μl of 8% neutralized formalin solution to each well using EL460 liquid dispenser 5 μl cassette and the cells were incubated for 30 minutes at room temperature. The formalin solution was washed off with […] phosphate buffered saline (dPBS), the 0.1% Triton X-100 solution in dPBS was used to permeabilize the cells for 15 minutes at room temperature. The triton solution was aspirated, 50 μl of Odyssey Blocking buffer+0.05% Tween20 was added and the plate was incubated at room temperature for 30 minutes.
The blocking solution was removed, a 20 μl of SDMA antibody (Cell Signaling Technology, Cat no. 13222) diluted 1:500 in Odyssey Blocking buffer+0.05% Tween20 was added and the plate was incubated at 4° C. overnight. Next day, the primary SDME antibody solution was washed from each well three times with 0.05% Tween20 in dPBS (PBST).
A 30 μl of the secondary antibody, a Goat anti-Rabbit Alexa Fluor Plus 488 (Invitrogen, Cat no. PIA32731) was diluted 1:500 in Odyssey Blocking buffer+0.05% Tween20 and the plate was incubated for 1.5 hours in dark at room temperature. The secondary antibody solution was removed, 30 μl of 5 mg/ml DAPI solution diluted 1:2000 in dPBS was added and the plate was incubated for 30 minutes in dark at room temperature. The DAPI solution was aspirated and the wells were washed six times with dPBS.
The SDMA signal and DAPI signal per cell were counted using a Cellomics CX7 LZR instrument reading under 488 and 405 nm laser, respectively. The SDMA signal was quantified by mean average intensity per cell from Alexa Fluor Plus 488 after the cell was defined with DAPI.

[3] = taken as HCT116 WT versus MTAP-deleted
[4] = taken as HCT116 WT vs MTAP-deleted

Structure (SMILES): Cn1ncc2c(N)nc3cc(F)c(C(=O)N(Cc4ccc(C(F)(F)F)cn4)N4CCOC4=O)cc3c21 [Example 145, 4-amino-7-fluoro-1-methyl-N-(2-oxooxazolidin-3-yl)-N-[[5-(trifluoromethyl)-2-pyridyl]methyl]pyrazolo[4,3-c]quinoline-8-carboxamide]
- CC50 [1]: < 100 nM
- EC50 [2]: < 1 nM
- EC50 selectivity (SDMA assay) [2, 3]: 45

Structure (SMILES): CC(=O)N1CC(C(=O)N(C)N(Cc2ccc(C(F)(F)F)cn2)C(=O)c2ccc3nc(N)c4cnn(C)c4c3c2)C1 [Example 103, N′-(1-acetylazetidine-3-carbonyl)-4-amino-N′,1-dimethyl-N-[[5-(trifluoromethyl)-2-pyridyl]methyl]pyrazolo[4,3-c]quinoline-8-carbohydrazide]
- CC50 [1]: > 1000 nM
- EC50 [2]: > 5 nM
- EC50 selectivity (SDMA assay) [2, 3]: <500

Structure (SMILES): CC(=O)N(C)N(Cc1ccc(C(F)(F)F)cn1)C(=O)c1ccc2nc(N)c3sncc3c2c1 [Example 69, N′-acetyl-4-amino-N′-methyl-N-[[5-(trifluoromethyl)-2-pyridyl]methyl]isothiazolo[5,4-c]quinoline-8-carbohydrazide]
- CC50 [1]: 100 to 1000 nM
- EC50 [2]: 1 to 5 nM
- EC50 selectivity (SDMA assay) [2, 3]: 142

Structure (SMILES): Cn1ncc2c(N)nc3ccc(C(=O)N(Cc4ccc(C(F)(F)F)cn4)NC(=O)C45CC(C4)C5)cc3c21 [Example 332, 4-amino-N′-(bicyclo[1.1.1]pentane-1-carbonyl)-1-methyl-N-((5-(trifluoromethyl)pyridin-2-yl)methyl)-1H-pyrazolo[4,3-c]quinoline-8-carbohydrazide]
- CC50 [1]: < 100 nM
- EC50 [2]: < 1 nM
- EC50 selectivity (SDMA assay) [2, 3]: 308

Structure (SMILES): CN(C(=O)C1CC1)N(Cc1nc2cc(C(F)(F)F)ccc2n1C)C(=O)c1ccc2nc(N)c3cnn(C)c3c2c1 [Example 437, 4-amino-N′-(cyclopropanecarbonyl)-N′,1-dimethyl-N-((1-methyl-5-(trifluoromethyl)-1H-benzo[d]imidazol-2-yl)methyl)-1H-pyrazolo[4,3-c]quinoline-8-carbohydrazide]
- CC50 [1]: < 100 nM
- EC50 [2]: 1 to 5 nM
- EC50 selectivity (SDMA assay) [2, 4]: 256

Structure (SMILES): CN(C(=O)C1CCC1)N(Cc1ccc(C(F)(F)F)nn1)C(=O)c1ccc2nc(N)c3cnn(C)c3c2c1 [Example 104, 4-amino-N′-(cyclobutanecarbonyl)-N′,1-dimethyl-N-((6-(trifluoromethyl)pyridazin-3-yl)methyl)-1H-pyrazolo[4,3-c]quinoline-8-carbohydrazide]
- CC50 [1]: < 100 nM
- EC50 [2]: 1 to 5 nM
- EC50 selectivity (SDMA assay) [2, 3]: 173

Structure (SMILES): CN1CCN(N(Cc2ccc(C(F)(F)F)cn2)C(=O)c2cc3c(cc2F)nc(N)c2cnn(C)c23)C1=O [Example 134, 4-amino-7-fluoro-1-methyl-N-(3-methyl-2-oxoimidazolidin-1-yl)-N-((5-(trifluoromethyl)pyridin-2-yl)methyl)-1H-pyrazolo[4,3-c]quinoline-8-carboxamide]
- CC50 [1]: < 100 nM
- EC50 [2]: 1 to 5 nM
- EC50 selectivity (SDMA assay) [2, 3]: 18

Structure (SMILES): CN(C(=O)C12CC(C1)C2)N(Cc1ccc2ncsc2c1)C(=O)c1ccc2nc(N)c3cnn(C)c3c2c1 [Example 338, 4-amino-N-(benzo[d]thiazol-6-ylmethyl)-N′-(bicyclo[1.1.1]pentane-1-carbonyl)-N′,1-dimethyl-1H-pyrazolo[4,3-c]quinoline-8-carbohydrazideide]
- CC50 [1]: < 100 nM
- EC50 [2]: < 1 nM
- EC50 selectivity (SDMA assay) [2, 3]: 373

Structure (SMILES): [2H]C([2H])([2H])n1ncc2c(N)nc3ccc(C(=O)N(Cc4ccc(C(F)(F)F)cc4F)N(C)C(C)=O)cc3c21 [Example 270, N′-acetyl-4-amino-N-(2-fluoro-4-(trifluoromethyl)benzyl)-N′-methyl-1-(methyl-d3)-1H-pyrazolo[4,3-c]quinoline-8-carbohydrazide]
- CC50 [1]: < 100 nM
- EC50 [2]: < 1 nM
- EC50 selectivity (SDMA assay) [2, 3]: 129

Structure (SMILES): CC(=O)N(C)N(Cc1c(Cl)ccc(F)c1F)C(=O)c1ccc2nc(N)c3cnn(C)c3c2c1 [Example 448, N′-acetyl-4-amino-N-(6-chloro-2,3-difluorobenzyl)-N′,1-dimethyl-1H-pyrazolo[4,3-c]quinoline-8-carbohydrazide]
- CC50 [1]: < 100 nM
- EC50 [2]: 1 to 5 nM
- EC50 selectivity (SDMA assay) [2, 4]: 224

Structure (SMILES): CC(=O)N(C)N(Cc1ccc(C(F)(F)F)c(F)c1)C(=O)c1ccc2nc(N)c3cnn(C)c3c2c1 [Example 351, N′-acetyl-4-amino-N-(3-fluoro-4-(trifluoromethyl)benzyl)-N′,1-dimethyl-1H-pyrazolo[4,3-c]quinoline-8-carbohydrazide]
- CC50 [1]: < 100 nM
- EC50 [2]: 1 to 5 nM
- EC50 selectivity (SDMA assay) [2, 3]: 33

Structure (SMILES): CN(C(=O)C1CC1)N(Cc1cccc2c1OC(F)(F)O2)C(=O)c1cc2c(cc1F)nc(N)c1cnn(C)c12 [Example 303, 4-amino-N′-(cyclopropanecarbonyl)-N-((2,2-difluorobenzo[d][1,3]dioxol-4-yl)methyl)-7-fluoro-N′,1-dimethyl-1H-pyrazolo[4,3-c]quinoline-8-carbohydrazide]
- CC50 [1]: < 100 nM
- EC50 [2]: < 1 nM
- EC50 selectivity (SDMA assay) [2, 3]: 58

Structure (SMILES): CN(C(=O)C1(F)CC1)N(Cc1ccc(C(F)(F)F)cn1)C(=O)c1ccc2nc(N)c3cnn(C)c3c2c1 [Example 117, 4-amino-N′-(1-fluorocyclopropanecarbonyl)-N′,1-dimethyl-N-[[5-(trifluoromethyl)-2-pyridyl]methyl]pyrazolo[4,3-c]quinoline-8-carbohydrazide]
- CC50 [1]: < 100 nM
- EC50 [2]: < 1 nM
- EC50 selectivity (SDMA assay) [2, 3]: 34

Structure (SMILES): Cn1ncc2c(N)nc3ccc(C(=O)N(Cc4ccc(-c5cnn(C(F)(F)F)c5)cn4)N4CCCCC4=O)cc3c21 [Example 161, 4-amino-1-methyl-N-(2-oxopiperidin-1-yl)-N-((5-(1-(trifluoromethyl)-1H-pyrazol-4-yl)pyridin-2-yl)methyl)-1H-pyrazolo[4,3-c]quinoline-8-carboxamide]
- CC50 [1]: < 100 nM
- EC50 [2]: 1 to 5 nM
- EC50 selectivity (SDMA assay) [2, 3]: 51

Structure (SMILES): Cn1ncc2c(N)nc3cc(F)c(C(=O)N(Cc4nc5cc(Cl)ccc5n4C)N4CCCCC4=O)cc3c21 [Example 212, 4-Amino-N-[(5-chloro-1-methyl-benzimidazol-2-yl)methyl]-7-fluoro-1-methyl-N-(2-oxo-1-piperidyl)pyrazolo[4,3-c]quinoline-8-carboxamide]
- CC50 [1]: < 100 nM
- EC50 [2]: 1 to 5 nM
- EC50 selectivity (SDMA assay) [2, 3]: 80

Structure (SMILES): COc1nc(C(F)(F)F)ccc1CN(C(=O)c1ccc2nc(N)c3cnn(C)c3c2c1)N(C)C(C)=O [Example 18, N′-acetyl-4-amino-N-[[2-methoxy-6-(trifluoromethyl)-3-pyridyl]methyl]-N′, 1-dimethyl-pyrazolo[4,3-c]quinoline-8-carbohydrazide]
- CC50 [1]: < 100 nM
- EC50 [2]: < 1 nM
- EC50 selectivity (SDMA assay) [2, 3]: 61

Structure (SMILES): CN(C(=O)C1CC1)N(Cc1ccc(-c2cnn(C(F)(F)F)c2)cc1)C(=O)c1ccc2nc(N)c3cnn(C)c3c2c1 [Example 374, 4-amino-N′-(cyclopropanecarbonyl)-N′,1-dimethyl-N-[[4-[1-(trifluoromethyl)pyrazol-4-yl]phenyl]methyl]pyrazolo[4,3-c]quinoline-8-carbohydrazide]
- CC50 [1]: < 100 nM
- EC50 [2]: 1 to 5 nM
- EC50 selectivity (SDMA assay) [2, 3]: 125

Structure (SMILES): CN(C(=O)[C@H]1C[C@H]1F)N(Cc1ncc(C(F)(F)F)cc1F)C(=O)c1ccc2nc(N)c3cnn(C)c3c2c1 [Example 262, 4-amino-N-((3-fluoro-5-(trifluoromethyl)pyridin-2-yl)methyl)-N′-((1R,2R)-2-fluorocyclopropane-1-carbonyl)-N′,1-dimethyl-1H-pyrazolo[4,3-c]quinoline-8-carbohydrazide]
- CC50 [1]: < 100 nM
- EC50 [2]: 1 to 5 nM
- EC50 selectivity (SDMA assay) [2, 3]: 169

Structure (SMILES): CN(C(=O)C1CC1)N(Cc1ccc(C(F)(F)F)cn1)C(=O)c1cc2c(cc1F)nc(N)c1cnn(C)c12 [Example 146, 4-amino-N′-(cyclopropanecarbonyl)-7-fluoro-N′,1-dimethyl-N-[[5-(trifluoromethyl)-2-pyridyl]methyl]pyrazolo[4,3-c]quinoline-8-carbohydrazide]
- CC50 [1]: < 100 nM
- EC50 [2]: < 1 nM
- EC50 selectivity (SDMA assay) [2, 3]: 16

Structure (SMILES): CCC(=O)N(C)N(Cc1ncc(C(F)(F)F)cc1F)C(=O)c1ccc2nc(N)c3cnn(C)c3c2c1 [Example 265, 4-amino-N-((3-fluoro-5-(trifluoromethyl)pyridin-2-yl)methyl)-N′,1-dimethyl-N′-propionyl-1H-pyrazolo[4,3-c]quinoline-8-carbohydrazide]
- CC50 [1]: < 100 nM
- EC50 [2]: < 1 nM
- EC50 selectivity (SDMA assay) [2, 3]: 209
